Results: US8084602B2, “Porphyrin derivatives and their use in photodynamic therapy” (Destiny Pharma Limited, priority 2002, dated 2011)

What was measured:
[1] = system: E. coli ATCC 25922; assay: Cell survival (colony forming unit) with or without illumination; format: cell-based, Escherichia coli; details: for Log reduction: E. coli
Protocol: (§1) The toxic effects of exemplary compounds of the invention against two bacterial strains, the Gram negative bacterium Escherichia coli (strain ATCC 25922) and the Gram positive bacterium Staphylococcus aureus (methicillin-resistant strain ATTC BAA-44), were evaluated by measuring the extent of growth inhibition (bacteriostatic effect) and growth […] (cytocidal effect) in the dark and upon light exposure. Initial compound screening was undertaken using white light [390-740 nm] (150 mW/cm^2) for various timepoints of a concentration of 3 μM (see Table 1). Further experiments were undertaken on those compounds identified from this initial screen using a light source emitting light at a wavelength between 417-420 nm at 15.2 mW/cm^2, 13.68 J/cm^2 (Waldmann Eclairage SA, France) (see Table 20.
(§2) For the further investigation of the exemplary compounds (Table 2), the following protocol was adopted: • (i) Bacteria (S. aureus BAA-44 and E. coli 25922) were grown in brain heart infusion (BHI) broth until they reached the stationary phase of growth. • (ii) The cells were harvested by centrifugation (3000 g for 15 min) with a table centrifuge, washed with 10 mM PBS at pH 7.4 containing 2.7 mM KCl and 0.14 M NaCl and suspended in PBS at an optical density of 0.7 at 650 nm corresponding to 10^8-10^9 cells/ml. • (iii) The bacteria, at the desired cell density (˜10^8 cells/ml) were incubated for 5 min in the dark with various concentrations of the exemplary compounds. • (iv) At the end of the incubation period the cells were washed three times with PBS, suspended in PBS, transferred into a 96-well microtitre plate (200 μl/well) and illuminated for 15 min with the Waldmann light source (15.2 mW/cm^2; 13.7 J/cm^2). The cells were illuminated from the bottom of the plate laying it on the glass cover of the lamp. • (v) After illumination, cell survival was determined by plating serially diluted aliquots of treated and untreated (i.e. no exemplary compound or light present) cells onto brain heart agar (BHA) and counting the number of colonies after 18-24 h incubation at 37° C.
(§3) the above colony forming unit (CFU) protocol was also used to investigate the photodynamic activity of very low concentrations of the compounds of the invention.

[2] = Chemical stability, qualitative stress tests (HPLC, LC-MS); format: physicochemical; details: solid, aqueous solution and PBS; 7 days each at 50° C., 70° C., 90° C.
Protocol: The following HPLC methodology was established for the analysis of the exemplary compounds of the invention.
The method involves detection by UV at a wavelength of 420 nm, which is very specific for these compounds. In order to monitor impurities not related to the porphyrin structure (and therefore not absorbing at 420 nm) UV spectra of the whole chromatograms were also recorded between 200 nm and 700 nm by DAD (diode array detector) in certain experiments.
Qualitative stress tests were undertaken on the exemplary compounds of the invention. Analysis was undertaken by HPLC & LC-MS. The compounds were stress tested in solid form, in an aqueous solution and a solution made up in phosphate-buffered saline buffer. The samples were initially incubated for 7 days at 50° C. and a sample removed for testing. The samples were then incubated for a further 7 days at 70° C., samples removed as before and the samples incubated further for 7 days at 90° C. HPLC analysis of freshly prepared solutions was undertaken and compared to the samples after 7, 14 and 21 days incubation. A visual comparison of the chromatograms was then undertaken and the content of the main products and by-products as area percentage values determined (see FIG. 11).

[3] = system: normal human dermal fibroblasts (NHDF); assay: Toxicity against human skin cells, MTT-assay; format: cell-based
Protocol: (§4) Test compounds were screened for toxicity against cultured human skin cells using normal human epidermal keratinocytes (NHEK) and normal human dermal fibroblasts (NHDF), purchased from CellSystems Biotechnologie GmbH, Germany.
(§5) The NHEK and NHDF cells were used between passages 3 and 10. The cells were seeded with 7.5 and/or 15×10^4 cells/well (microtitreplate) and allowed to attach overnight in an incubator (37° C., 5% CO2). […]
(§6) Phototoxicity was tested by standard MTT-assay (Mossman et al., 1983, Immunological Methods 65:55-63). MTT is an indicator of metabolically active cells. Dependent on enzyme activity in mitochondria a colour reaction can be visualised, which can be measured by ELISA reader (540 nm). The cell viability data were normalised, i.e. the OD values of cells after PDT without photosensitisers were adjusted to one. Each experiment was repeated three times.

[4] = system: normal human epidermal keratinocytes (NHEK); assay: Toxicity against human skin cells, MTT-assay; format: cell-based
Protocol: as §4, §5, §6

[5] = system: S. aureus ATCC BAA-44 (a methicillin resistant S. aureus); assay: Cell survival (colony forming unit) with or without illumination; format: cell-based, Staphylococcus aureus; details: for dark toxicity against BAA-44: absence of light, at the concentrations tested (FIG. 4); for Log reduction: S. aureus
Protocol: as §1, §2, §3

[6] = system: bacterial cells compared to human skin cells; assay: Selectivity for bacteria compared to human skin cells; format: cell-based; details: at a dose of 0.01 μM
Protocol: as §2, §4
The NHEK and NHDF cells were used between passages 3 and 10. The cells were seeded with 7.5 and/or 15×10^4 cells/well (microtitreplate) and allowed to attach overnight in an incubator (37° C., 5% CO2). After incubation with different concentrations of the selected photosensitisers, the cells were illuminated for fifteen minutes (Light source 236, Waldmann; 15.2 mW/cm^2, 13.7 J/cm^2) and then incubated for 24 hours in the dark.
as §6

[7] = dark toxicity (no illumination), 0.01 μM
[8] = dark toxicity (no illumination), 10 μM
[9] = photodynamic activity, 0.01 μM, illumination 15 min
[10] = dark toxicity, 1 μM, no illumination
[11] = dark toxicity, 10 μM, no illumination
[12] = photodynamic activity (light toxicity), 0.01 μM, illumination 15 min
[13] = photodynamic activity (light toxicity), 0.1 μM, illumination 15 min
[14] = photodynamic activity (light toxicity), 1 μM, illumination 15 min
[15] = dark toxicity (no illumination), 1 μM
[16] = photodynamic activity, 1 μM, illumination 15 min

SMILES: CN(C)CCC[N+](C)(C)CCCOc1ccc(-c2c3nc(cc4ccc([nH]4)c(-c4ccc(OCCC[N+](C)(C)CCCN(C)C)cc4)c4nc(cc5ccc2[nH]5)C=C4)C=C3)cc1.[Cl-].[Cl-] [Compound 8, 5,15-bis-(4-{3-[(3-Dimethylamino-propyl)-dimethylammonio]-propyloxy}-phenyl)-porphyrin dichloride]
- Log reduction [1, 7]: <1 (<10^−1)
- Log reduction [1, 8]: 2 (10^−2)
- Log reduction [1, 9]: <1 (<10^−1)
- Log reduction ([1]; photodynamic activity, 10 μM, illumination 15 min): >6 (>10^−6)
- chemical stability under stress test [2]: less stable than Compounds 10 and 12
- Survival [3, 10]: 100%
- Survival [3, 11]: 68%
- Survival [3, 12]: 100%
- Survival [3, 13]: 12%
- Survival [3, 14]: 3%
- Survival [4, 11]: 97%
- Survival [4, 12]: 98%
- Survival [4, 13]: 33%
- Survival [4, 14]: 0.5%
- dark toxicity against BAA-44 [5]: negligible
- Log reduction [5, 15]: <1 (<10^−1)
- Log reduction [5, 8]: <1 (<10^−1)
- Log reduction [5, 9]: 3
- Log reduction ([5]; photodynamic activity, 0.1 μM, illumination 15 min): 3 (10^−3)
- Log reduction [5, 16]: 6 (10^−6)
- toxicity to bacterial cells compared to human skin cells [6]: preferentially toxic to bacterial cells compared to human skin cells

SMILES: C[N+](C)(C)CCCOc1ccc(-c2c3nc(cc4ccc([nH]4)c(-c4ccc(OCCC[N+](C)(C)C)cc4)c4nc(cc5ccc2[nH]5)C=C4)C=C3)cc1.[Cl-].[Cl-] [Compound 10, 5,15-bis-[4-(3-Trimethylammonio-propyloxy)-phenyl]-porphyrin dichloride]
- Concentration of Compound 10 required to obtain a 3 log reduction in cells (μM) ([1]; E. coli ATCC 25922): 0.1 μM
- Log reduction [1, 15]: <1 (<10^−1)
- Log reduction [1, 16]: >6 (>10^−6)
- chemical stability under stress test [2]: good stability
- Survival [3, 10]: 100%
- Survival [3, 11]: 91%
- Survival [3, 12]: 80%
- Survival [3, 13]: 8%
- Survival [3, 14]: 0.5%
- Survival [4, 10]: 100%
- Survival [4, 11]: 51%
- Survival [4, 12]: 62%
- Survival [4, 13]: 1.0%
- bacteria killed ([5]; BAA-44, 0.0025 μM, with light): 90%
- Concentration of Compound 10 required to obtain a 3 log reduction in cells (μM) ([5]; Staphylococcus aureus ATCC BAA-44): 0.005 μM
- dark toxicity against BAA-44 [5]: negligible
- Log reduction [5, 7]: <1 (<10^−1)
- Log reduction [5, 9]: >4 (>10^−4)
- toxicity to bacterial cells compared to human skin cells [6]: preferentially toxic to bacterial cells compared to human skin cells
